Assay results: ChEMBL document CHEMBL2321869, “Ion channels as therapeutic targets: a drug discovery perspective” (J Med Chem, 2013)

Assays:
[1] = target: Potassium voltage-gated channel subfamily KQT member 1 (Homo sapiens, UniProt P51787); assay: Inhibition of voltage-gated K channel 7.1 (unknown origin)
[2] = target: Potassium voltage-gated channel subfamily A member 5 (Homo sapiens, UniProt P22460); assay: Inhibition of voltage-gated K channel 1.5 (unknown origin)
[3] = target: Voltage-gated inwardly rectifying potassium channel KCNH2 (Homo sapiens, UniProt Q12809); assay: Inhibition of human ERG channel
[4] = target: T1, Sodium channel protein type 9 subunit alpha (Homo sapiens, UniProt Q15858); assay: Inhibition of voltage-gated Na channel 1.7 (unknown origin)
[5] = target: Sodium channel protein type 8 subunit alpha (Homo sapiens, UniProt Q9UQD0); assay: Inhibition of voltage-gated Na channel 1.6 (unknown origin)
[6] = target: Sodium channel protein type 4 subunit alpha (Homo sapiens, UniProt P35499); assay: Inhibition of voltage-gated Na channel 1.4 (unknown origin)
[7] = target: T2, Sodium channel protein type 2 subunit alpha (Homo sapiens, UniProt Q99250); assay: Inhibition of voltage-gated Na channel 1.2 (unknown origin)
[8] = target: Sodium channel protein type 3 subunit alpha (Homo sapiens, UniProt Q9NY46); assay: Inhibition of voltage-gated Na channel 1.3 (unknown origin)
[9] = target: Sodium channel protein type 1 subunit alpha (Homo sapiens, UniProt P35498); assay: Inhibition of voltage-gated Na channel 1.1 (unknown origin)
[10] = target: T2, Sodium channel protein type 2 subunit alpha; assay: Inhibition of human voltage-gated Na channel 1.2 by cell based patch clamp technique
[11] = target: T1, Sodium channel protein type 9 subunit alpha; assay: Inhibition of human voltage-gated Na channel 1.7 by cell based patch clamp technique
[12] = target: Sodium channel protein type 5 subunit alpha (Homo sapiens, UniProt Q14524); assay: Inhibition of human voltage-gated Na channel 1.5 by cell based patch clamp technique
[13] = target: Glutamate receptor 1 (Homo sapiens, UniProt P42261); assay: Agonist activity at GluA1 (unknown origin)
[14] = target: T3, Sodium channel protein type 3 subunit alpha (Rattus norvegicus, UniProt P08104); assay: Inhibition of rat voltage-gated Na channel 1.3 in dorsal root ganglion neurons by patch clamp technique; assay type: tissue-based
[15] = target: Sodium channel protein type 1 subunit alpha (Rattus norvegicus, UniProt P04774); assay: Inhibition of rat voltage-gated Na channel 1.1 in dorsal root ganglion neurons by patch clamp technique; assay type: tissue-based
[16] = target: Sodium channel protein type 10 subunit alpha (Rattus norvegicus, UniProt Q62968); assay: Binding affinity to voltage-gated Na channel 1.8 in Sprague-Dawley rat L4/L5 DRG neurons by patch-clamp technique
[17] = target: T1, Sodium channel protein type 9 subunit alpha; assay: Binding affinity to human inactivated voltage-gated Na channel 1.7 expressed in HEK293 cells by patch-clamp technique; assay type: cell-based
[18] = target: T3, Sodium channel protein type 3 subunit alpha; assay: Binding affinity to rat inactivated voltage-gated Na channel 1.3 expressed in human HEK293 cells by patch-clamp technique; assay type: cell-based
[19] = target: GABA-A receptor; alpha-3/beta-3/gamma-2 (Homo sapiens, UniProt P18507+P28472+P34903); assay: Modulation of human GABAA alpha3beta3gamma2 expressed in xenopus oocytes assessed as potentiation of GABA-evoked chloride currents; assay type: cell-based, Oocyte
[20] = target: GABA-A receptor; alpha-2/beta-3/gamma-2 (Homo sapiens, UniProt P18507+P28472+P47869); assay: Modulation of human GABAA alpha2beta3gamma2 expressed in xenopus oocytes assessed as potentiation of GABA-evoked chloride currents; assay type: cell-based, Oocyte
[21] = target: GABA-A receptor; alpha-1/beta-2/gamma-2 (Homo sapiens, UniProt P14867+P18507+P47870); assay: Modulation of human GABA-A alpha1beta2gamma2 expressed in xenopus oocytes assessed as potentiation of GABA-evoked chloride currents; assay type: cell-based, Oocyte
[22] = target: Gamma-aminobutyric acid receptor subunit alpha-5/beta-3/gamma-3 (Homo sapiens, UniProt P28472+P31644+Q99928); assay: Modulation of human GABAA alpha5beta3gamma3 expressed in xenopus oocytes assessed as potentiation of GABA-evoked chloride currents; assay type: cell-based, Oocyte

T1 sequence (Q15858 whole entry): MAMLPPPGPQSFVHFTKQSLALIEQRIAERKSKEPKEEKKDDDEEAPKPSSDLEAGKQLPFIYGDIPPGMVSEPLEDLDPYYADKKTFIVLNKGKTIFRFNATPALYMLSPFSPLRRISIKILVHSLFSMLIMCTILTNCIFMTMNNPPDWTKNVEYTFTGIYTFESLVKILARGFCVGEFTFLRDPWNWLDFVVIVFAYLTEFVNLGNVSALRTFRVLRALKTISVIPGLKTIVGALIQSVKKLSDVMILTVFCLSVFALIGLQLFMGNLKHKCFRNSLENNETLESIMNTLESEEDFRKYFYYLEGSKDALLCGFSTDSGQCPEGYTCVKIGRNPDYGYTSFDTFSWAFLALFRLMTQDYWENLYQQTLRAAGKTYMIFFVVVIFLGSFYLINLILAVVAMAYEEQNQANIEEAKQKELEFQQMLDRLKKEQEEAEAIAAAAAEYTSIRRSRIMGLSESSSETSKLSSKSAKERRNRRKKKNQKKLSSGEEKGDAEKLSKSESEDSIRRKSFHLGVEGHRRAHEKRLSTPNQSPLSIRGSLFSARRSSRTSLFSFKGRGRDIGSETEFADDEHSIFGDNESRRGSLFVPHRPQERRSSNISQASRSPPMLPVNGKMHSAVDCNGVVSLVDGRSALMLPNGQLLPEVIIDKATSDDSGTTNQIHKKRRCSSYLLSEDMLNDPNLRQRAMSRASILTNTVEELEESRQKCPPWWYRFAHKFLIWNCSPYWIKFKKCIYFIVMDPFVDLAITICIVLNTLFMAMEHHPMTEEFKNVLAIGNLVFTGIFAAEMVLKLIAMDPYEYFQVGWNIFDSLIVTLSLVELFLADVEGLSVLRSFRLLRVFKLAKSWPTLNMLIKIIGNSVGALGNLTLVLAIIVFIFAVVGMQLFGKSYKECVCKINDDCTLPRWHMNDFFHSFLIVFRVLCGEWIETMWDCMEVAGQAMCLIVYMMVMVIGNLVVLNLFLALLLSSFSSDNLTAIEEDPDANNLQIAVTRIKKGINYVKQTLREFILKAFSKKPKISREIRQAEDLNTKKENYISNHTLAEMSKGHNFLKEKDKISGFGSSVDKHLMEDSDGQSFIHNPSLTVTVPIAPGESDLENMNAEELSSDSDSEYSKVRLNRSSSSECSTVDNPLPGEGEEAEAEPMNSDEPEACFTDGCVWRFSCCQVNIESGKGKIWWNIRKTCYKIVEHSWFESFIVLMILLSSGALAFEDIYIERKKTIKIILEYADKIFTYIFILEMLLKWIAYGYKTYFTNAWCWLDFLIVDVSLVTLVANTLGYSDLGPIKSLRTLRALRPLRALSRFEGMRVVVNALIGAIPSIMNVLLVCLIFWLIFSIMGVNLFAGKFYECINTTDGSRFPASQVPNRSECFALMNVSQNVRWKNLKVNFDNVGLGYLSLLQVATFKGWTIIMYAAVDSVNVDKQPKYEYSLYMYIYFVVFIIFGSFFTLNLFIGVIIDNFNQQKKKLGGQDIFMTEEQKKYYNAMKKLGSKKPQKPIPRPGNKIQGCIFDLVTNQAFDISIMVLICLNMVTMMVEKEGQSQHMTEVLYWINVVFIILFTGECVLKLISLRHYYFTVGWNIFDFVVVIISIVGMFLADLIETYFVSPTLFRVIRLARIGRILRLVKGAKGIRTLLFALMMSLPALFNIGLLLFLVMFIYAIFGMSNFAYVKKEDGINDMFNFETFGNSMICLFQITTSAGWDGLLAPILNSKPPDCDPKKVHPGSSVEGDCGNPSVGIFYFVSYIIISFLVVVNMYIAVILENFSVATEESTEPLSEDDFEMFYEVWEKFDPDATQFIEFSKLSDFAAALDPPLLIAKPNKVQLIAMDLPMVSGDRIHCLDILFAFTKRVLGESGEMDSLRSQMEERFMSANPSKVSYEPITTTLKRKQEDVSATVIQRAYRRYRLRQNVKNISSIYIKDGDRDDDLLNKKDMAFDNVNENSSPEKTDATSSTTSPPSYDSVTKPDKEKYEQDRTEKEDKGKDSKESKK
T2 sequence (Q99250 whole entry): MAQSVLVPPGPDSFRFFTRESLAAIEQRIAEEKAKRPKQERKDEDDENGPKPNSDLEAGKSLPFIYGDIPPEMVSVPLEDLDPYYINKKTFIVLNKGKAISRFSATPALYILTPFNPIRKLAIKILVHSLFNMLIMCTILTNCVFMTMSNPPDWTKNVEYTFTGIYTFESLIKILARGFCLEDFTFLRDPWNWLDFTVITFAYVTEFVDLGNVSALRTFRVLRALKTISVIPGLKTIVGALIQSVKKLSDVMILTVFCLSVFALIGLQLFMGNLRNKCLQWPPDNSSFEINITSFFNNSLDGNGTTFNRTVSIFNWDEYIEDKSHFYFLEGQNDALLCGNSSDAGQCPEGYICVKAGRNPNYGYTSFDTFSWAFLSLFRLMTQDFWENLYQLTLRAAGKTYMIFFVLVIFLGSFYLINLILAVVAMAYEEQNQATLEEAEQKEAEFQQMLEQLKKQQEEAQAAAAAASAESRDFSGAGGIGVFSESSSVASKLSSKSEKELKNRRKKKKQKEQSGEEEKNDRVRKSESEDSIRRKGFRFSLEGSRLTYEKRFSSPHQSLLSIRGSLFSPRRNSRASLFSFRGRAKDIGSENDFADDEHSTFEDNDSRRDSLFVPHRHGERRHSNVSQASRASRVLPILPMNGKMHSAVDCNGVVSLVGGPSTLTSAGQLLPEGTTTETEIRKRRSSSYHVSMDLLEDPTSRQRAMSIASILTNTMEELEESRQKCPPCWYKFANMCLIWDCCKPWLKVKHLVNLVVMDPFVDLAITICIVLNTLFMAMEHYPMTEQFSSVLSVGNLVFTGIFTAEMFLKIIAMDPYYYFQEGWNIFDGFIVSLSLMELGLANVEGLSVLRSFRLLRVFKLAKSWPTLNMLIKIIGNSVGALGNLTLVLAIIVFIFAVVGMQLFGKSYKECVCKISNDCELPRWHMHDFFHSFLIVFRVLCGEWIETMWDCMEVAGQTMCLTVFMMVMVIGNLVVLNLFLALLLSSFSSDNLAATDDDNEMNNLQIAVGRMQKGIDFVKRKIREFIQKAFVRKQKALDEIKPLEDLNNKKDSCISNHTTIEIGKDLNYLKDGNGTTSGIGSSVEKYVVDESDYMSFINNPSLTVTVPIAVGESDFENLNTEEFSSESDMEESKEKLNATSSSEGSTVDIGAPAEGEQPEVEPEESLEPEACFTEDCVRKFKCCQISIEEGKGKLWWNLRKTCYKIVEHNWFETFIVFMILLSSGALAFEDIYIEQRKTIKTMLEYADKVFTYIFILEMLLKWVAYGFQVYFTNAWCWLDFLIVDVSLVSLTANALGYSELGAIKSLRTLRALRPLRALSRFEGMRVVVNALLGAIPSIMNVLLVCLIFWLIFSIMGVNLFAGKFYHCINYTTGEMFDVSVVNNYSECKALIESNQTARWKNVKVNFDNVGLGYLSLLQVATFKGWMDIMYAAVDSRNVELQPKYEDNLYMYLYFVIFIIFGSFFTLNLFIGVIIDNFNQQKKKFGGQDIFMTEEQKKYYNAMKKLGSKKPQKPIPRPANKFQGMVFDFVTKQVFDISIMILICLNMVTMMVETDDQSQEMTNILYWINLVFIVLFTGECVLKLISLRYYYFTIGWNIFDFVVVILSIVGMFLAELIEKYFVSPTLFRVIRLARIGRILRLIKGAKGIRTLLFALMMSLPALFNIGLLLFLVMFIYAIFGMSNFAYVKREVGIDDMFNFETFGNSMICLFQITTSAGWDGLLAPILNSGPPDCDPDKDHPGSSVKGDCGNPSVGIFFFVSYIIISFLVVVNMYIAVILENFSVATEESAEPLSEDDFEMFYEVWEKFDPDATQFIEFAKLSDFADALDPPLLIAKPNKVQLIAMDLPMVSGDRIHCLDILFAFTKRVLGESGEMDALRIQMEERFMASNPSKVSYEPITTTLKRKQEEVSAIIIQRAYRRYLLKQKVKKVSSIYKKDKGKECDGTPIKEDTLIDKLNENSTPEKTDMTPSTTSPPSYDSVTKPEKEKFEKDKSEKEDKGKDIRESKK
Chain of Potassium voltage-gated channel subfamily A member 5 (P22460 whole entry): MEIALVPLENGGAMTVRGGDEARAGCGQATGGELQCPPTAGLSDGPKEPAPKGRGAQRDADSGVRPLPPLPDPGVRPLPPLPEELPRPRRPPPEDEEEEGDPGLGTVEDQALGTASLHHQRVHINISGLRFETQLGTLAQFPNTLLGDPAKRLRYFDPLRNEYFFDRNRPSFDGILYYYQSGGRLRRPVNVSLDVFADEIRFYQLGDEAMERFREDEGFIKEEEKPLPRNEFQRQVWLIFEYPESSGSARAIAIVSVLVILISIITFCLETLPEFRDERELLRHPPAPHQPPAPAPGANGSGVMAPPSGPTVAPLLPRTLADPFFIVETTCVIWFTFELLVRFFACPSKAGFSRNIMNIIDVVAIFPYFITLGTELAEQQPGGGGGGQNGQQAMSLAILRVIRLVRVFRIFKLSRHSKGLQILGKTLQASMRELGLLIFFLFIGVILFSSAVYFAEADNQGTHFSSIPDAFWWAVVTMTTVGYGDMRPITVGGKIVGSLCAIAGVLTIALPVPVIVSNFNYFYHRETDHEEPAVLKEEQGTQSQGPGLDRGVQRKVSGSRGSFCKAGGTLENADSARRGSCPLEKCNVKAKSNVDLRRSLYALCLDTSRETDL

For NC(=O)C(c1ccccc1)(c1ccc(F)cc1)c1ccc(F)cc1 [SENICAPOC], the IC50 [1] was greater than 1 µM, the IC50 [2] was greater than 1 µM and the IC50 [3] was greater than 1 µM. It also gave an IC50 [4] greater than 1 µM, an IC50 [5] greater than 1 µM and an IC50 [6] greater than 1 µM. The IC50 [7] was greater than 1 µM, the IC50 [8] was greater than 1 µM and the IC50 [9] was greater than 1 µM.
COc1cnc(-c2cccc3c2C[C@H](NC(=O)c2ccc(COCC(F)(F)F)nc2)CO3)cn1 gave an IC50 [10] greater than 33 µM, an IC50 [11] of 0.066 µM and an IC50 [12] of 13 µM.
Molecule N[C@@H](C[C@@H](C/C=C/c1ccc2ccccc2c1)C(=O)O)C(=O)O has an EC50 [13] greater than 300 µM.
O=C1[C@@H](N2CC[C@H](c3cc(Cl)cc(Cl)c3)C2)CCN1c1ccc(S(=O)(=O)Nc2nccs2)cc1 was tested, and the IC50 [14] was less than 2 µM and the IC50 [15] was less than 2 µM.
Molecule COC[C@@H](NC(C)=O)C(=O)NCc1ccccc1 [LACOSAMIDE] has an IC50 [16] of 16 µM, an IC50 [17] of 0.182 µM and an IC50 [18] of 0.415 µM.
CCN(C(C)=O)c1cccc(-c2ccnc3c(C#N)cnn23)c1 [ZALEPLON] gave an EC50 [19] greater than 1 µM, an EC50 [20] of 1.63 µM and an EC50 [21] of 0.29 µM. The EC50 [22] was greater than 1 µM.
